Source: ChEMBL document CHEMBL1144507, “Synthesis and antifungal activity of (Z)-5-arylidenerhodanines” (2007)
Values after ≈ are worked out from the molar mass of the structure shown.

Columns and labels:
[1] = tested on: Trichophyton rubrum; assay: Antifungal activity against Trichophyton rubrum C110 after 48 hrs; type: functional
[2] = tested on: Trichophyton rubrum; assay: Antifungal activity against Trichophyton rubrum C136 after 48 hrs; type: functional
[3] = tested on: Trichophyton rubrum; assay: Antifungal activity against Trichophyton rubrum C140 after 48 hrs; type: functional
[4] = tested on: Trichophyton rubrum; assay: Antifungal activity against Trichophyton rubrum C135 after 48 hrs; type: functional
[5] = tested on: Trichophyton benhamiae; assay: Antifungal activity against Trichophyton mentagrophytes C943 after 48 hrs; type: functional, Arthroderma benhamiae
[6] = tested on: Trichophyton benhamiae; assay: Antifungal activity against Trichophyton mentagrophytes C539 after 48 hrs; type: functional, Arthroderma benhamiae
[7] = tested on: Trichophyton benhamiae; assay: Antifungal activity against Trichophyton mentagrophytes C108 after 48 hrs; type: functional, Arthroderma benhamiae
[8] = tested on: Trichophyton rubrum; assay: Antifungal activity against Trichophyton rubrum C137 after 48 hrs; type: functional
[9] = tested on: Trichophyton rubrum; assay: Antifungal activity against Trichophyton rubrum C139 after 48 hrs; type: functional
[10] = tested on: Trichophyton benhamiae; assay: Antifungal activity against Trichophyton mentagrophytes C364 after 48 hrs; type: functional, Arthroderma benhamiae
[11] = tested on: Trichophyton benhamiae; assay: Antifungal activity against Trichophyton mentagrophytes C738 after 48 hrs; type: functional, Arthroderma benhamiae

MIC [1]: 6 ng/mL (≈ 0.0206 µM)
MIC [2]: 6 ng/mL (≈ 0.0206 µM)
MIC [3]: 3 ng/mL (≈ 0.0103 µM)
MIC [4]: 6 ng/mL (≈ 0.0206 µM)
MIC [5]: 6 ng/mL (≈ 0.0206 µM)
MIC [6]: 6 ng/mL (≈ 0.0206 µM)
MIC [7]: 6 ng/mL (≈ 0.0206 µM)
MIC [8]: 6 ng/mL (≈ 0.0206 µM)
MIC [9]: 12 ng/mL (≈ 0.0412 µM)
MIC [10]: 6 ng/mL (≈ 0.0206 µM)
MIC [11]: 6 ng/mL (≈ 0.0206 µM)
SMILES: CN(C/C=C/C#CC(C)(C)C)Cc1cccc2ccccc12 [TERBINAFINE]
